Experimental findings from article PMC11790708, “Clioquinol inhibits angiogenesis by promoting VEGFR2 degradation and synergizes with AKT inhibition to suppress triple-negative breast cancer vascularization” (Angiogenesis, 2025) are described below.

The term IC50 denotes the concentration that inhibits the measured activity by half. Read a high IC50 as weaker potency.

The assay concerns the target T1, VEGFR2 (Homo sapiens, UniProt P35968).
T1 construct: gene KDR; recombinant VEGFR2 (amino acids 789 to end)
Briefly: cell-free ADP-Glo kinase assay at […] ATP, with ATP competition at […] ATP. In kind it is biochemical.

T1 sequence (P35968 789-1356): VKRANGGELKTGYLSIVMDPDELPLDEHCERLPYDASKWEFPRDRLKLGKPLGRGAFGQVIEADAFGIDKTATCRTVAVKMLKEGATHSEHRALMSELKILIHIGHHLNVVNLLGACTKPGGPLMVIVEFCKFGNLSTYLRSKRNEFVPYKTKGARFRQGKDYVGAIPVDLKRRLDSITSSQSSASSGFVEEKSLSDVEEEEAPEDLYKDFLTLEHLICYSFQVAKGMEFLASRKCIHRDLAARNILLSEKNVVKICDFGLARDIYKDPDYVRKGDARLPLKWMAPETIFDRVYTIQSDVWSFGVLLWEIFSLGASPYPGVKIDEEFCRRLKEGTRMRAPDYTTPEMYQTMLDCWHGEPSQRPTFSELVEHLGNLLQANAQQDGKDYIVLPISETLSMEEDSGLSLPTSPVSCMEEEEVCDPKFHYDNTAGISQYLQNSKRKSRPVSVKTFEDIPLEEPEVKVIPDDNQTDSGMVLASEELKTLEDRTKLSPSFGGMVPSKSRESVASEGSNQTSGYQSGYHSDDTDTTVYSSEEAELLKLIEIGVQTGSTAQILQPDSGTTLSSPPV

For the compound `Oc1c(I)cc(Cl)c2cccnc12` [clioquinol], the IC50 stood at 34.6 µM.
